Measurements reported in article PMC6009956, “Design, synthesis and biological activity of N^4-phenylsubstituted-7H-pyrrolo[2,3-d]pyrimidin-4-amines as dual inhibitors of aurora kinase A and epidermal growth factor receptor kinase” (Journal of Enzyme Inhibition and Medicinal Chemistry, 2017).
Like-named read-outs stand apart in the source and are kept apart here.

Key:
[1] = target: T1, aurora A kinase (AURKA) (Homo sapiens, UniProt O14965); assay: ADP-Glo kinase assay, Aurora A; type: biochemical
T1 construct: purchased BPS Bioscience (assay run externally by the vendor)
T1 sequence (O14965 1-403): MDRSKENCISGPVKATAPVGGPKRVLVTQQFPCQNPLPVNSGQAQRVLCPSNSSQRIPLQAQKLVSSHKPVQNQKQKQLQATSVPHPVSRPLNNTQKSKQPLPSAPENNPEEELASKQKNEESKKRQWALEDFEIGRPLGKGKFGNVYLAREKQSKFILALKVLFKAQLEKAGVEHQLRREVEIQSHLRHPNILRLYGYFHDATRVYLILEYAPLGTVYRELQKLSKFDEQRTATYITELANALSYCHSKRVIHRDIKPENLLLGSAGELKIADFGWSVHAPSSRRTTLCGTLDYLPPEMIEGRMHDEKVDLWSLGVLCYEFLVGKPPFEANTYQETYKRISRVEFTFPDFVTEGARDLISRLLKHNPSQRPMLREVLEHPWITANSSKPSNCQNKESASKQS

[2] = target: EGFR (Homo sapiens, UniProt P00533); assay: ADP-Glo kinase assay, EGFR; type: biochemical; parameters: purchased BPS Bioscience (assay run externally by the vendor)
[3] = 10 µM ATP, triplicate, read-out: AURKA IC50 ± SD
[4] = 10 µM ATP/0.2 mg/ml Kemptide, read-out: Aurora A IC50 (dose-response curve, supplement)
[5] = 10 µM ATP, triplicate, read-out: EGFR IC50 ± SD
[6] = 10 µM ATP/0.2 mg/ml Poly-Glu-Tyr, read-out: EGFR IC50 (dose-response curve, supplement)

Chain of EGFR (P00533 25-1210): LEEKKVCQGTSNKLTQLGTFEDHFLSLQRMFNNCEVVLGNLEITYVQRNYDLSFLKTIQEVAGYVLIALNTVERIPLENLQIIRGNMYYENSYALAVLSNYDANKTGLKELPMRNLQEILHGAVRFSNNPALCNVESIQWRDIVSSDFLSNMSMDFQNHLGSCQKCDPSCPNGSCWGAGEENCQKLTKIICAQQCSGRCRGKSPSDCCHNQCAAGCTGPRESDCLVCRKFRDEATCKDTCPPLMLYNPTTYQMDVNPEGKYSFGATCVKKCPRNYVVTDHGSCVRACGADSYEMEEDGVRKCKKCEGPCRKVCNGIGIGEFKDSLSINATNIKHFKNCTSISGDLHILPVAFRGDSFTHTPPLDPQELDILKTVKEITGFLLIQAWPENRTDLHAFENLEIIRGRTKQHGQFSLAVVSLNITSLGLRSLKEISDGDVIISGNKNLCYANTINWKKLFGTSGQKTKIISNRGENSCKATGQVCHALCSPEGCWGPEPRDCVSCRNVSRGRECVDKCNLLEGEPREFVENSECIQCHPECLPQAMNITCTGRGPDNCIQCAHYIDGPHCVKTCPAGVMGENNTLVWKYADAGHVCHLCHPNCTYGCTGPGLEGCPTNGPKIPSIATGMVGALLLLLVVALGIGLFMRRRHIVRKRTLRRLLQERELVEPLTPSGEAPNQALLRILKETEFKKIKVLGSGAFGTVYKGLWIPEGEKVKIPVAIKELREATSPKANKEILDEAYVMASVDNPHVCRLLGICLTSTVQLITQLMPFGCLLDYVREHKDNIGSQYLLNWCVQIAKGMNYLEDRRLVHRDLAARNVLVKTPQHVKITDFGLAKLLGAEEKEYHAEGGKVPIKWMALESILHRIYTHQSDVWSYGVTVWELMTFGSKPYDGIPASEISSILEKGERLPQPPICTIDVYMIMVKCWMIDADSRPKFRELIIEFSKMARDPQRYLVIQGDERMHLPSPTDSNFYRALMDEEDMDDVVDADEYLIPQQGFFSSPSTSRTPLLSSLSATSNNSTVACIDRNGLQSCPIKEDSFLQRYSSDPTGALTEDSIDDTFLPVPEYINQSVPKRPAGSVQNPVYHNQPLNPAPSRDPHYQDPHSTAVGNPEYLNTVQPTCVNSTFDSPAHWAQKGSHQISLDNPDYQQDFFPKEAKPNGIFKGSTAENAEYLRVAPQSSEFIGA

Brc1ccc(Nc2ncnc3[nH]ccc23)cc1 [Compound 10, N^4-(4-bromophenyl)-7H-pyrrolo[2,3-d]pyrimidin-4-amine]
IC50 [1, 3]: 3.73 ± 0.12 µM
IC50 [1, 4]: 3.7 µM
Aurora A % Activity Set1 ([1]; Log[nM] 0): 98%
Aurora A % Activity Set2 ([1]; Log[nM] 0): 87%
Aurora A % Activity Set3 ([1]; Log[nM] 0): 96%
Aurora A % Activity Set1 ([1]; Log[nM] 1.0): 97%
Aurora A % Activity Set2 ([1]; Log[nM] 1.0): 94%
Aurora A % Activity Set3 ([1]; Log[nM] 1.0): 94%
Aurora A % Activity Set1 ([1]; Log[nM] 1.5): 100%
Aurora A % Activity Set2 ([1]; Log[nM] 1.5): 95%
Aurora A % Activity Set3 ([1]; Log[nM] 1.5): 95%
Aurora A % Activity Set1 ([1]; Log[nM] 2.0): 102%
Aurora A % Activity Set2 ([1]; Log[nM] 2.0): 97%
Aurora A % Activity Set3 ([1]; Log[nM] 2.0): 101%
Aurora A % Activity Set1 ([1]; Log[nM] 2.5): 100%
Aurora A % Activity Set2 ([1]; Log[nM] 2.5): 93%
Aurora A % Activity Set3 ([1]; Log[nM] 2.5): 98%
Aurora A % Activity Set1 ([1]; Log[nM] 3.0): 82%
Aurora A % Activity Set2 ([1]; Log[nM] 3.0): 83%
Aurora A % Activity Set3 ([1]; Log[nM] 3.0): 82%
Aurora A % Activity Set1 ([1]; Log[nM] 3.5): 60%
Aurora A % Activity Set2 ([1]; Log[nM] 3.5): 55%
Aurora A % Activity Set3 ([1]; Log[nM] 3.5): 53%
Aurora A % Activity Set1 ([1]; Log[nM] 4.0): 20%
Aurora A % Activity Set2 ([1]; Log[nM] 4.0): 19%
Aurora A % Activity Set3 ([1]; Log[nM] 4.0): 20%
Aurora A % Activity Set1 ([1]; Log[nM] 4.5): 9%
Aurora A % Activity Set2 ([1]; Log[nM] 4.5): 9%
Aurora A % Activity Set3 ([1]; Log[nM] 4.5): 9%
Aurora A % Activity Set1 ([1]; Log[nM] 5.0): 10%
Aurora A % Activity Set2 ([1]; Log[nM] 5.0): 10%
Aurora A % Activity Set3 ([1]; Log[nM] 5.0): 9%
IC50 [2, 5]: 0.125 ± 0.0164 µM
IC50 [2, 6]: 0.125 µM
EGFR % Activity Set1 ([2]; Log[nM] 0): 90%
EGFR % Activity Set2 ([2]; Log[nM] 0): 96%
EGFR % Activity Set3 ([2]; Log[nM] 0): 103%
EGFR % Activity Set1 ([2]; Log[nM] 1.0): 97%
EGFR % Activity Set2 ([2]; Log[nM] 1.0): 90%
EGFR % Activity Set3 ([2]; Log[nM] 1.0): 97%
EGFR % Activity Set1 ([2]; Log[nM] 1.5): 78%
EGFR % Activity Set2 ([2]; Log[nM] 1.5): 82%
EGFR % Activity Set3 ([2]; Log[nM] 1.5): 80%
EGFR % Activity Set1 ([2]; Log[nM] 2.0): 53%
EGFR % Activity Set2 ([2]; Log[nM] 2.0): 56%
EGFR % Activity Set3 ([2]; Log[nM] 2.0): 51%
EGFR % Activity Set1 ([2]; Log[nM] 2.5): 30%
EGFR % Activity Set2 ([2]; Log[nM] 2.5): 29%
EGFR % Activity Set3 ([2]; Log[nM] 2.5): 28%
EGFR % Activity Set1 ([2]; Log[nM] 3.0): 14%
EGFR % Activity Set2 ([2]; Log[nM] 3.0): 12%
EGFR % Activity Set3 ([2]; Log[nM] 3.0): 12%
EGFR % Activity Set1 ([2]; Log[nM] 3.5): 6%
EGFR % Activity Set2 ([2]; Log[nM] 3.5): 5%
EGFR % Activity Set3 ([2]; Log[nM] 3.5): 5%
EGFR % Activity Set1 ([2]; Log[nM] 4.0): 2%
EGFR % Activity Set2 ([2]; Log[nM] 4.0): 2%
EGFR % Activity Set3 ([2]; Log[nM] 4.0): 2%
EGFR % Activity Set1 ([2]; Log[nM] 4.5): 1%
EGFR % Activity Set2 ([2]; Log[nM] 4.5): 1%
EGFR % Activity Set3 ([2]; Log[nM] 4.5): 1%
EGFR % Activity Set1 ([2]; Log[nM] 5.0): 1%
EGFR % Activity Set2 ([2]; Log[nM] 5.0): 1%
EGFR % Activity Set3 ([2]; Log[nM] 5.0): 1%

c1ccc(Cc2ccc(Nc3ncnc4[nH]ccc34)cc2)cc1 [Compound 18, N^4-(4-benzylphenyl)-7H-pyrrolo[2,3-d]pyrimidin-4-amine]
Fold better than compound 17 against AURKA [1]: approximately two-fold
IC50 [1, 3]: 4.95 ± 0.69 µM
IC50 [1, 4]: 5 µM
Aurora A % Activity Set1 ([1]; Log[nM] 0): 110%
Aurora A % Activity Set2 ([1]; Log[nM] 0): 93%
Aurora A % Activity Set3 ([1]; Log[nM] 0): 104%
Aurora A % Activity Set1 ([1]; Log[nM] 1.0): 103%
Aurora A % Activity Set2 ([1]; Log[nM] 1.0): 93%
Aurora A % Activity Set3 ([1]; Log[nM] 1.0): 101%
Aurora A % Activity Set1 ([1]; Log[nM] 1.5): 105%
Aurora A % Activity Set2 ([1]; Log[nM] 1.5): 96%
Aurora A % Activity Set3 ([1]; Log[nM] 1.5): 105%
Aurora A % Activity Set1 ([1]; Log[nM] 2.0): 103%
Aurora A % Activity Set2 ([1]; Log[nM] 2.0): 93%
Aurora A % Activity Set3 ([1]; Log[nM] 2.0): 100%
Aurora A % Activity Set1 ([1]; Log[nM] 2.5): 90%
Aurora A % Activity Set2 ([1]; Log[nM] 2.5): 86%
Aurora A % Activity Set3 ([1]; Log[nM] 2.5): 93%
Aurora A % Activity Set1 ([1]; Log[nM] 3.0): 77%
Aurora A % Activity Set2 ([1]; Log[nM] 3.0): 73%
Aurora A % Activity Set3 ([1]; Log[nM] 3.0): 85%
Aurora A % Activity Set1 ([1]; Log[nM] 3.5): 51%
Aurora A % Activity Set2 ([1]; Log[nM] 3.5): 45%
Aurora A % Activity Set3 ([1]; Log[nM] 3.5): 47%
Aurora A % Activity Set1 ([1]; Log[nM] 4.0): 32%
Aurora A % Activity Set2 ([1]; Log[nM] 4.0): 30%
Aurora A % Activity Set3 ([1]; Log[nM] 4.0): 31%
Aurora A % Activity Set1 ([1]; Log[nM] 4.5): 29%
Aurora A % Activity Set2 ([1]; Log[nM] 4.5): 26%
Aurora A % Activity Set3 ([1]; Log[nM] 4.5): 26%
Aurora A % Activity Set1 ([1]; Log[nM] 5.0): 30%
Aurora A % Activity Set2 ([1]; Log[nM] 5.0): 26%
Aurora A % Activity Set3 ([1]; Log[nM] 5.0): 26%
IC50 [2, 5]: 0.0633 ± 0.00458 µM
IC50 [2, 6]: 0.0633 µM
EGFR % Activity Set1 ([2]; Log[nM] 0): 96%
EGFR % Activity Set2 ([2]; Log[nM] 0): 92%
EGFR % Activity Set3 ([2]; Log[nM] 0): 95%
EGFR % Activity Set1 ([2]; Log[nM] 1.0): 88%
EGFR % Activity Set2 ([2]; Log[nM] 1.0): 83%
EGFR % Activity Set3 ([2]; Log[nM] 1.0): 88%
EGFR % Activity Set1 ([2]; Log[nM] 1.5): 66%
EGFR % Activity Set2 ([2]; Log[nM] 1.5): 62%
EGFR % Activity Set3 ([2]; Log[nM] 1.5): 65%
EGFR % Activity Set1 ([2]; Log[nM] 2.0): 42%
EGFR % Activity Set2 ([2]; Log[nM] 2.0): 38%
EGFR % Activity Set3 ([2]; Log[nM] 2.0): 43%
EGFR % Activity Set1 ([2]; Log[nM] 2.5): 16%
EGFR % Activity Set2 ([2]; Log[nM] 2.5): 16%
EGFR % Activity Set3 ([2]; Log[nM] 2.5): 16%
EGFR % Activity Set1 ([2]; Log[nM] 3.0): 8%
EGFR % Activity Set2 ([2]; Log[nM] 3.0): 8%
EGFR % Activity Set3 ([2]; Log[nM] 3.0): 9%
EGFR % Activity Set1 ([2]; Log[nM] 3.5): 3%
EGFR % Activity Set2 ([2]; Log[nM] 3.5): 3%
EGFR % Activity Set3 ([2]; Log[nM] 3.5): 3%
EGFR % Activity Set1 ([2]; Log[nM] 4.0): 2%
EGFR % Activity Set2 ([2]; Log[nM] 4.0): 2%
EGFR % Activity Set3 ([2]; Log[nM] 4.0): 2%
EGFR % Activity Set1 ([2]; Log[nM] 4.5): 2%
EGFR % Activity Set2 ([2]; Log[nM] 4.5): 2%
EGFR % Activity Set3 ([2]; Log[nM] 4.5): 2%
EGFR % Activity Set1 ([2]; Log[nM] 5.0): 2%
EGFR % Activity Set2 ([2]; Log[nM] 5.0): 3%
EGFR % Activity Set3 ([2]; Log[nM] 5.0): 2%
